Source: patent US5610171A, “Inhibition of metastasis in patients having cancer with pyridyloxazole-2-ones” (Merrell Pharmaceuticals Inc., priority 1995, dated 1997)
“Also recorded” adds a separate entry of the source.

Tests used:
B16F1 cells = assay: Colony forming (clonogenic) assay of B16F1 cells; format: cell-based, murine; details: 24 hours
Method: One hundred viable cells, as determined by trypan blue exclusion, were plated per 35 mm dish in MEM and incubated for 24 hours at 37° C. Next, 4-propyl-5(4-pyridinyl)-2(3H)-oxazolone was added and incubation continued for an additional 24 hours, after which the dishes were washed twice with Hank's Balanced Salt Solution (HBSS) and replenished with MEM. Ten days later, colonies with a diameter of 2 mm or greater were counted.
B16F1 cells (10^2) were plated and incubated for 24
hours at 37° C. Next, 4-propyl-5(4-pyridinyl)-2(3H)-
oxazolone (compound 1) was added and incubation continued
for an additional 24 hours at which time the drug was
removed. Ten days later, colonies greater than 2 mm in […]

membrane-associated PKC = assay: Inhibition of B16F1 membrane-associated PKC activity; format: biochemical, murine; details: B16F1 membrane fraction
Method: (§1) Protein Kinase C Preparation
(§2) Cytostolic and membrane-associated PKC was prepared as described in Thomas, T. P., Gopalakrishna, R. and Anderson, W. B. Hormone- and tumor promoter-induced activation of membrane association of protein kinase C in intact cells, Methodsin Enzymology, 141: 399-411, 1987. Sub-confluent B16F1 cultures (4×10^7 cells total) were washed twice with phosphate buffered saline (PBS), pH 7.2 and then twice with buffer A (20 mM Tris, pH 7.5, 2 mM EDTA, 0.5 mM EGTA, […], 2 mM phenylmethylsulfonyl fluoride (PMSF), and 2 μg/ml leupeptin). Cells were scraped from the plates in buffer A, homogenized (40 strokes) and sedimented by centrifugation for 1 hour at 100,000 g. The cytosol was stored on ice while the particulate fraction was washed with buffer B (20 mM Tris, pH 7.2, 2 mM EDTA, 0.5 mM EGTA, and 2 mM (PMSF). The membranes were resuspended with buffer B and homogenized with 10 strokes. Nonidet P-40 (1% final concentration) was added and the mixture was incubated for 30 minutes at 4° C. in a rotating mixer. Nonsolubilized material was removed by centrifugation for 10 minutes at 1400 g. Cytostolic and membrane-bound PKC was partially purified by chromatography over 1 ml columns of DE-52 (Whatman) equilibrated with buffer B. The enzyme was applied to the column and washed with 2×3 ml buffer B. Elution of PKC was then effected by the addition of 2 ml buffer B containing 100 mM NaCl.
(§3) PKC was quantitated as described in Thomas et al., ibid. The assay contained 20 mM Tris (pH 7.5), 0.75 mM CaCl, 10 mM magnesium acetate, […] histone III-S, 0.25 μg/ml leupeptin, 100 μM [gamma-^32 p]-ATP (120 cpm/pmol), 0.96 μg/ml phosphatidylserine, and 0.0064 μg/ml 1,2-diolein in a total assay volume of 250 μl. Blanks contained no calcium or phospholipids. Incubation was for 5 minutes at 30° C. at which point the reaction was terminated by the addition of 1 ml 25% trichloroacetic acid (TCA). Samples were applied to Whatman GF/B filters, the tube rinsed twice with 5% TCA and the filter then washed 5 times with 5% TCA.

cytosolic PKC = assay: PKC activity in cytosol of pretreated B16F1 cells; format: cell-based, murine; details: 24 hours
Method: as §1, §2
as §3, with “Samples were applied to Whatman GF/B filters, the tube rinsed twice with 5% TCA and the filter then washed 5 times with 5% TCA.” left out
then prepared and its activity was measured as described in […]

fibrinogen = assay: Adhesion of B16F1 cells to fibrinogen; format: cell-based; details: 24 hours
Method: (§4) Adhesion of B16F1 Cells to Basement Membrane Proteins
(§5) Adhesion proteins (2 μg/well) were coated onto Immulon I Removawells from Dynatech and incubated for 1 hour at 37° C. The wells were then blocked for 1 hour with 400 μl PBS, pH 7.2 containing 1% bovine serum albumin (BSA) at 37° C. Prior to addition of the cell suspension, the blocking solution was aspirated.
(§6) Sub-confluent cells were washed twice with HBSS and removed form flasks by incubation for 10 minutes at 37° C. with PBS (pH 7.2), 2 mM EDTA, and 1% BSA. The cells were washed twice with MEM containing 20 mM HEPES and 0.1% BSA and resuspended in the same medium to give a cell density of […].
(§7) Cells were added to wells in 50 μl (5×10^4 cells) and incubated at 37° C. The wells were aspirated and washed three times with 400 μl PBS (pH 7.2) containing 0.1% BSA. Wells were detached and counted in 5 ml Beckman Ready Protein. Blanks were not coated with protein but were blocked with BSA as described above.

collagen IV = assay: Adhesion of B16F1 cells to collagen IV; format: cell-based; details: 24 hours
Method: as §4, §5, §6, §7

fibronection = assay: Adhesion of B16F1 cells to fibronectin; format: cell-based; details: 24 hours
Method: as §4, §5, §6, §7

[1] = system: extracellular matrix/basement membrane proteins; assay: Adhesion of B16F1 cells to extracellular matrix/basement membrane proteins; format: cell-based, murine
Method: as §4, §5, §6, §7

For `CCCc1[nH]c(=O)oc1-c1ccncc1` [Compound 1, 4-propyl-5(4-pyridinyl)-2(3H)-oxazolone], the “Colonies per dish, Mean +/- SE” value (B16F1 cells; 10 μM) was 27 +/- 2 colonies per dish, the “Colonies per dish, Mean +/- SE” value (B16F1 cells; 20 μM) was 34 +/- 1 colonies per dish and the “Colonies per dish, Mean +/- SE” value (B16F1 cells; 50 μM) was 29 +/- 1 colonies per dish. For the same compound, the “viability of treated cells (clonogenic assay)” value (B16F1 cells) was “equivalent to untreated cells”, the IC50 (membrane-associated PKC) was 13 µM and the “PKC Activity, cytosol” value (cytosolic PKC; 5 μM) was 7305 pmol per min per mg protein. The “PKC Activity, cytosol” value (cytosolic PKC; 25 μM) was 2485 pmol per min per mg protein, the “PKC Activity, cytosol” value (cytosolic PKC; 50 μM) was 3658 pmol per min per mg protein and the adhesion to fibrinogen (fibrinogen) was “most sensitive to inhibition”. The “adhesion to collagen IV” value (collagen IV) was “most sensitive to inhibition”, the adherence to fibronection (fibronection) was “inhibited minimally or not at all” and the “attachment to extracellular matrix/basement membrane proteins” value ([1]; 24 hours) was “decreased adhesion to some basement membrane proteins; also recorded: less adherent than untreated cells”. The “potency for inhibition of adhesion relative to H-7” value ([1]; versus H-7) was “more potent than H-7” and the “potency for inhibition of adhesion relative to staurosporine” value ([1]; versus staurosporine) was “significantly less potent than staurosporine”.
